Values quoted from earlier work as cited in patent US20230158080A1 ([…], LLC, priority 2021, published 2023).

Key:
androgen receptor = androgen receptor (Homo sapiens, UniProt P10275); conditions: stimulation of EPCs
EPC = conditions: different doses of R1881
[1] = test system: CD34+/F1k1+ and CD34+/VE-cadherin+ cells; conditions: castrated rats after testosterone supplementation

androgen receptor, sequence (P10275 whole entry): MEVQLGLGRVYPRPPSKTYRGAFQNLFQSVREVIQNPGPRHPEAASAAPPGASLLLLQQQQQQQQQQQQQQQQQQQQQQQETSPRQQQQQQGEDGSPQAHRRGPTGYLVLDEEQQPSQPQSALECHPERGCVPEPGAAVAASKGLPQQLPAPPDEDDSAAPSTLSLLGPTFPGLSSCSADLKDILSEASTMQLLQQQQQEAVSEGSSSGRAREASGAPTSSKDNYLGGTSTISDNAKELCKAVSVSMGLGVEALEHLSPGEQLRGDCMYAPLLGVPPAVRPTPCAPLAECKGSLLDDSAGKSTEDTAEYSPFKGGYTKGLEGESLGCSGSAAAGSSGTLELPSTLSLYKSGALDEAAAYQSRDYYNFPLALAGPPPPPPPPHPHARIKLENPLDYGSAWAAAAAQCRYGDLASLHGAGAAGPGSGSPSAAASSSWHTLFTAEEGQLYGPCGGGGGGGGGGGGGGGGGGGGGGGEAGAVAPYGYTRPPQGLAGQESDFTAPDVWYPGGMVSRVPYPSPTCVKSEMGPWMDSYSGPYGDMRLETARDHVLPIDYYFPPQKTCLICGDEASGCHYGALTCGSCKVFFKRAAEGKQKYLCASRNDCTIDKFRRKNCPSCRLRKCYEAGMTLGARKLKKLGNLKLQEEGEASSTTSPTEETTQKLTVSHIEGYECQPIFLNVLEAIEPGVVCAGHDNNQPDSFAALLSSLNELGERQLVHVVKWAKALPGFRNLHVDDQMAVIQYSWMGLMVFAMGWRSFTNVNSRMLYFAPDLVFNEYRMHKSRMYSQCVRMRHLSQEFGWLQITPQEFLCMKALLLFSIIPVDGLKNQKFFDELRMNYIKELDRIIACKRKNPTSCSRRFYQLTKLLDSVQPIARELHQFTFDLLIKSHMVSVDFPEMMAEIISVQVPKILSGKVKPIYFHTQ

SMILES	androgen receptor translocation in the nucleus (androgen receptor)	EPC proliferation, migration and colony formation (EPC)	percentage of EPC marker-positive cells in corpus cavernosum [1]
C[C@]1(O)CC[C@H]2[C@@H]3CCC4=CC(=O)CCC4=C3C=C[C@@]21C [R1881, methyltrienolone]	caused androgen receptor translocation in the nucleus	dose-dependent increase	
C[C@]12CC[C@H]3[C@@H](CCC4=CC(=O)CC[C@@]43C)[C@@H]1CC[C@@H]2O [testosterone]			restored
